“And” between values parts separate entries of the source, which are not always exact repeats. Equal entries are not always repeated.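 A five-concentration, 48-hour dose response in 96-well plates underlies each endpoint, interpolated linearly between surrounding concentrations. At the GI50, growth is halved. At the TGI there is no net growth.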
Columns and labels:
Experiment in all cases: NCI tumour cell line growth inhibition, 48 h
786-0 renal = tested on: 786-0 renal
A498 renal = tested on: A498 renal
ACHN renal = tested on: ACHN renal
BT-549 breast = tested on: BT-549 breast
CAKI-1 renal = tested on: CAKI-1 renal
CCRF-CEM leukemia = tested on: CCRF-CEM leukemia
COLO 205 colon = tested on: COLO 205 colon
DU-145 prostate = tested on: DU-145 prostate
EKVX NSCLC = tested on: EKVX NSCLC
HCC-2998 colon = tested on: HCC-2998 colon
HCT-116 colon = tested on: HCT-116 colon
HCT-15 colon = tested on: HCT-15 colon
HL-60(TB) leukemia = tested on: HL-60(TB) leukemia
HOP-62 NSCLC = tested on: HOP-62 NSCLC
HOP-92 NSCLC = tested on: HOP-92 NSCLC
HS 578T breast = tested on: HS 578T breast
HT29 colon = tested on: HT29 colon
K-562 leukemia = tested on: K-562 leukemia
KM12 colon = tested on: KM12 colon
LOX IMVI melanoma = tested on: LOX IMVI melanoma
M14 melanoma = tested on: M14 melanoma
MALME-3M melanoma = tested on: MALME-3M melanoma
MCF7 breast = tested on: MCF7 breast
MDA-MB-231 breast = tested on: MDA-MB-231 breast
MDA-MB-435 = tested on: MDA-MB-435
MDA-MB-468 breast = tested on: MDA-MB-468 breast
MOLT-4 leukemia = tested on: MOLT-4 leukemia
NCI-H226 lung = tested on: NCI-H226 lung
NCI-H23 lung = tested on: NCI-H23 lung
NCI-H522 lung = tested on: NCI-H522 lung
NCI/ADR-RES ovarian = tested on: NCI/ADR-RES ovarian
OVCAR-3 ovarian = tested on: OVCAR-3 ovarian
OVCAR-4 ovarian = tested on: OVCAR-4 ovarian
OVCAR-5 ovarian = tested on: OVCAR-5 ovarian
OVCAR-8 ovarian = tested on: OVCAR-8 ovarian
PC-3 prostate = tested on: PC-3 prostate
RPMI-8226 leukemia = tested on: RPMI-8226 leukemia
RXF 393 renal = tested on: RXF 393 renal
SF-268 CNS = tested on: SF-268 CNS
SF-539 CNS = tested on: SF-539 CNS
SK-MEL-2 melanoma = tested on: SK-MEL-2 melanoma
SK-MEL-28 melanoma = tested on: SK-MEL-28 melanoma
SK-OV-3 ovarian = tested on: SK-OV-3 ovarian
SN12C renal = tested on: SN12C renal
SNB-19 CNS = tested on: SNB-19 CNS
SNB-75 CNS = tested on: SNB-75 CNS
SR leukemia = tested on: SR leukemia
SW-620 colon = tested on: SW-620 colon
T-47D breast = tested on: T-47D breast
TK-10 renal = tested on: TK-10 renal
UACC-257 melanoma = tested on: UACC-257 melanoma
UACC-62 melanoma = tested on: UACC-62 melanoma
UO-31 renal = tested on: UO-31 renal

COc1cc2cc(C(=O)N3C[C@@H](CCl)c4c3cc(OC(=O)N3CCN(C(=O)CCC(=O)N5CCN(C)CC5)[C@@H]5CSSC[C@@H]53)c3ccccc43)[nH]c2c(OC)c1OC
GI50 (786-0 renal): 49 nM
TGI (786-0 renal): 135 nM
GI50 (A498 renal): 122 nM and 218 nM
TGI (A498 renal): 1400 nM and 471 nM
GI50 (ACHN renal): 30.5 nM
TGI (ACHN renal): 93.2 nM
GI50 (BT-549 breast): 41 nM and 144 nM
TGI (BT-549 breast): 132 nM and 413 nM
GI50 (CAKI-1 renal): 101 nM and 172 nM
TGI (CAKI-1 renal): 1470 nM and 701 nM
GI50 (CCRF-CEM leukemia): 270 nM
TGI (CCRF-CEM leukemia): > 100000 nM
GI50 (COLO 205 colon): 49.4 nM and 145 nM
TGI (COLO 205 colon): 133 nM and 315 nM
GI50 (DU-145 prostate): 13.6 nM and 24.5 nM
TGI (DU-145 prostate): 25000 nM and 10200 nM
GI50 (EKVX NSCLC): 71.7 nM and 207 nM
TGI (EKVX NSCLC): 403 nM and 1380 nM
GI50 (HCC-2998 colon): 28.7 nM and 54.2 nM
TGI (HCC-2998 colon): 68.5 nM and 188 nM
GI50 (HCT-116 colon): 154 nM
TGI (HCT-116 colon): 11600 nM
GI50 (HCT-15 colon): 65.5 nM and 244 nM
TGI (HCT-15 colon): 1070 nM and 10500 nM
GI50 (HL-60(TB) leukemia): 53 nM and 48 nM
TGI (HL-60(TB) leukemia): 1090 nM and 2390 nM
GI50 (HOP-62 NSCLC): 41.3 nM
TGI (HOP-62 NSCLC): 231 nM
GI50 (HOP-92 NSCLC): 95.1 nM and 178 nM
TGI (HOP-92 NSCLC): 875 nM and 752 nM
GI50 (HS 578T breast): 266 nM and 292 nM
TGI (HS 578T breast): 1830 nM and 2450 nM
GI50 (HT29 colon): 57.9 nM and 142 nM
GI50 (K-562 leukemia): 122 nM and 89.1 nM
TGI (K-562 leukemia): 25000 nM and 9070 nM
GI50 (KM12 colon): 74.7 nM and 131 nM
GI50 (LOX IMVI melanoma): 37.6 nM and 69.2 nM
TGI (LOX IMVI melanoma): 114 nM and 276 nM
GI50 (M14 melanoma): 36.6 nM and 124 nM
TGI (M14 melanoma): 118 nM and 377 nM
GI50 (MALME-3M melanoma): 45.9 nM and 134 nM
TGI (MALME-3M melanoma): 102 nM and 284 nM
GI50 (MCF7 breast): 14.9 nM
TGI (MCF7 breast): 1590 nM
GI50 (MDA-MB-231 breast): 64 nM and 204 nM
TGI (MDA-MB-231 breast): 160 nM and 536 nM
GI50 (MDA-MB-435): 46.6 nM and 147 nM
TGI (MDA-MB-435): 102 nM and 298 nM
GI50 (MDA-MB-468 breast): 37.3 nM
TGI (MDA-MB-468 breast): 161 nM
GI50 (MOLT-4 leukemia): 12.4 nM and 62.8 nM
TGI (MOLT-4 leukemia): 25000 nM and 4720 nM
GI50 (NCI-H226 lung): 453 nM and 245 nM
TGI (NCI-H226 lung): 1670 nM and 3180 nM
GI50 (NCI-H23 lung): 10.3 nM and 18.6 nM
TGI (NCI-H23 lung): 50.5 nM and 88.7 nM
GI50 (NCI-H522 lung): 43.5 nM and 55.4 nM
TGI (NCI-H522 lung): 114 nM and 364 nM
GI50 (NCI/ADR-RES ovarian): 64.4 nM
TGI (NCI/ADR-RES ovarian): 268 nM
GI50 (OVCAR-3 ovarian): 53.9 nM
TGI (OVCAR-3 ovarian): 131 nM
GI50 (OVCAR-4 ovarian): 86.3 nM
TGI (OVCAR-4 ovarian): 662 nM
GI50 (OVCAR-5 ovarian): 82.8 nM
TGI (OVCAR-5 ovarian): 386 nM
GI50 (OVCAR-8 ovarian): 42.5 nM
TGI (OVCAR-8 ovarian): 160 nM
GI50 (PC-3 prostate): 57.7 nM and 479 nM
TGI (PC-3 prostate): 25000 nM and 10500 nM
GI50 (RPMI-8226 leukemia): 64.6 nM and 142 nM
TGI (RPMI-8226 leukemia): 2720 nM and 13200 nM
GI50 (RXF 393 renal): 37.4 nM and 34.7 nM
TGI (RXF 393 renal): 74.8 nM and 138 nM
GI50 (SF-268 CNS): 58.3 nM
TGI (SF-268 CNS): 608 nM
GI50 (SF-539 CNS): 38.5 nM and 38.9 nM
TGI (SF-539 CNS): 91.3 nM and 151 nM
GI50 (SK-MEL-2 melanoma): 47.1 nM and 42.8 nM
TGI (SK-MEL-2 melanoma): 93.5 nM and 131 nM
GI50 (SK-MEL-28 melanoma): 47.6 nM and 159 nM
TGI (SK-MEL-28 melanoma): 106 nM and 333 nM
GI50 (SK-OV-3 ovarian): 72.2 nM
TGI (SK-OV-3 ovarian): 374 nM
GI50 (SN12C renal): 32.8 nM
TGI (SN12C renal): 7040 nM
GI50 (SNB-19 CNS): 34 nM and 90.8 nM
TGI (SNB-19 CNS): 25000 nM and 16000 nM
GI50 (SNB-75 CNS): 41.8 nM and 79.8 nM
TGI (SNB-75 CNS): 148 nM and 354 nM
GI50 (SR leukemia): 6.22 nM and 19.5 nM
GI50 (SW-620 colon): 55.5 nM
TGI (SW-620 colon): 25000 nM
GI50 (T-47D breast): 118 nM and 229 nM
TGI (T-47D breast): 25000 nM and 19700 nM
GI50 (TK-10 renal): 663 nM and 1050 nM
TGI (TK-10 renal): 25000 nM and 22200 nM
GI50 (UACC-257 melanoma): 131 nM and 273 nM
TGI (UACC-257 melanoma): 711 nM and 1430 nM
GI50 (UACC-62 melanoma): 43.6 nM and 136 nM
TGI (UACC-62 melanoma): 158 nM and 324 nM
GI50 (UO-31 renal): 75 nM
TGI (UO-31 renal): 2840 nM

Source: PubChem BioAssay (NCI)
